Patent publication US20150105252A1, “SUBSTITUTED PYRAZOLES AS HERBICIDES” (E I DU PONT DE NEMOURS AND COMPANY, priority 2013, published 2015)

What was measured:
morningglory = test: Test A postemergence; type: in vivo, Ipomoea spp.; settings: Postemergence
Procedure, shortened: (§1)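 Growth medium: loam soil blended with sand. Preemergence treatment used a directed soil spray right after planting; postemergence treatment targeted seedlings at one to two leaves (2–10 cm height). Response was judged by eye relative to untreated plants about 10 days later on a 0–100 control scale.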

foxtail, giant [1] = test: Test A preemergence; type: in vivo, Setaria faberii; settings: preemergence; for Foxtail, Giant plant response rating (0 to 100 scale): 125 g ai/ha, visual injury approx. 10 days after treatment; for Foxtail, Giant plant response rating: 500 g ai/ha, visual injury after approx. 10 days, 0 to 100 scale (0 no effect, 100 complete control)
Procedure, shortened: as §1

barnyardgrass = test: Test C preemergence; type: in vivo, Echinochloa crus-galli; settings: preemergence; for Plant response rating, Barnyardgrass: 125 g ai/ha, scale 0 to 100, 0 = no effect, 100 = complete control
Procedure, shortened: (§2)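 Seeds sown in loam–sand blend and treated preemergence with test chemicals in non-phytotoxic solvent with surfactant; postemergence plants in peat-based medium, treated at 2–18 cm (1- to 4-leaf stage). Greenhouse 13 to 15 days, then visual rating versus controls, 0 (no effect) to 100 (complete control).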

galium = test: Test C postemergence; type: in vivo, Galium aparine; settings: for Plant response rating (scale of 0 to 100 where 0 is no effect and 100 is complete control), Galium: Postemergence, 31 g ai/ha, visually evaluated after 13 to 15 days; for Galium plant response rating / Plant response rating, Galium: postemergence; for Galium plant response rating: 62 g ai/ha, scale 0 to 100
Procedure, shortened: as §2

rice = test: Test B flood; type: in vivo, Oryza sativa; settings: 250 g ai/ha, visual rating on 0 to 100 scale (0 no effect, 100 complete control), 13 to 15 days
Procedure, shortened: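 Response scored visually, 0–100 relative to controls, 13–15 days after the compound was applied into paddy water; plants were at the 2-leaf stage in pots kept flooded to 3 cm.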

corn = test: Test C postemergence; type: in vivo, Zea mays; settings: for Plant response rating (scale of 0 to 100 where 0 is no effect and 100 is complete control), Corn: Postemergence, 31 g ai/ha, visually evaluated after 13 to 15 days; for Corn plant response rating / Plant response rating, Corn: postemergence; for Corn plant response rating: 62 g ai/ha, scale 0 to 100
Procedure, shortened: as §2

velvetleaf [2] = test: Test A preemergence; type: in vivo, Abutilon theophrasti; settings: preemergence; for Velvetleaf plant response rating (0 to 100 scale): 125 g ai/ha, visual injury approx. 10 days after treatment; for Velvetleaf plant response rating: 500 g ai/ha, visual injury after approx. 10 days, 0 to 100 scale (0 no effect, 100 complete control)
Procedure, shortened: as §1

crabgrass, large [3] = test: Test A preemergence; type: in vivo, Digitaria sanguinalis; settings: preemergence; for Crabgrass, Large plant response rating (0 to 100 scale): 125 g ai/ha, visual injury approx. 10 days after treatment; for Crabgrass, Large plant response rating: 500 g ai/ha, visual injury after approx. 10 days, 0 to 100 scale (0 no effect, 100 complete control)
Procedure, shortened: as §1

crabgrass, large [4] = test: Test C postemergence; type: in vivo, Digitaria sanguinalis; settings: for Plant response rating (scale of 0 to 100 where 0 is no effect and 100 is complete control), Crabgrass, Large: Postemergence, 31 g ai/ha, visually evaluated after 13 to 15 days; for Crabgrass, Large plant response rating / Plant response rating, Crabgrass, Large: postemergence; for Crabgrass, Large plant response rating: 62 g ai/ha, scale 0 to 100
Procedure, shortened: as §2

velvetleaf [5] = test: Test C postemergence; type: in vivo, Abutilon theophrasti; settings: postemergence; for Plant response rating, Velvetleaf: 250 g ai/ha, scale 0 to 100 (0 no effect, 100 complete control); for Velvetleaf plant response rating: scale 0 to 100
Procedure, shortened: as §2

waterhemp = test: Test C preemergence; type: in vivo, Amaranthus rudis; settings: preemergence; for Plant response rating, Waterhemp: 125 g ai/ha, scale 0 to 100, 0 = no effect, 100 = complete control
Procedure, shortened: as §2

nutsedge, yellow = test: Test C preemergence; type: in vivo, Cyperus esculentus; settings: preemergence; for Plant response rating, Nutsedge, Yellow: 125 g ai/ha, scale 0 to 100, 0 = no effect, 100 = complete control
Procedure, shortened: as §2

foxtail, giant [6] = test: Test A postemergence; type: in vivo, Setaria faberii
Procedure, shortened: as §1

lambsquarters = test: Test C preemergence; type: in vivo, Chenopodium album; settings: preemergence; for Plant response rating, Lambsquarters: 125 g ai/ha, scale 0 to 100, 0 = no effect, 100 = complete control
Procedure, shortened: as §2

[7] = 125 g ai/ha, 0 to 100 scale, 0 no effect, 100 complete control
[8] = 500 g ai/ha, 0 to 100 scale (0 no effect, 100 complete control)
[9] = 31 g ai/ha, visual rating, scale 0 to 100 (0 no effect, 100 complete control), 13 to 15 days
[10] = 62 g ai/ha, scale 0 to 100 (0 no effect, 100 complete control), 13 to 15 days
[11] = 250 g ai/ha, scale 0 to 100, 0 is no effect, 100 is complete control
[12] = 250 g ai/ha, scale 0 to 100 (0 no effect, 100 complete control)
[13] = 125 g ai/ha, scale 0 to 100, 0 no effect, 100 complete control
[14] = Postemergence, 500 g ai/ha, 0 to 100 scale (0 no effect, 100 complete control)
[15] = postemergence, 125 g ai/ha, about 10 days, visual rating on 0 to 100 scale (0 no effect, 100 complete control)

## CCCc1cc(C(=O)NOCC)nn1Cc1ccnc(C(F)(F)F)c1 [Compound 185]
morningglory; [7]
  Morningglory plant response rating: 20
morningglory; [8]
  Morningglory plant response rating: 90
foxtail, giant [1]
  Foxtail, Giant plant response rating (0 to 100 scale): 100
  Foxtail, Giant plant response rating: 100
barnyardgrass; [9]
  Barnyardgrass plant response rating: 55
barnyardgrass; [10]
  Barnyardgrass plant response rating: 75
barnyardgrass; 13 to 15 days
  Plant response rating, Barnyardgrass: 98
barnyardgrass; [11]
  Barnyardgrass plant response rating: 100
galium
  Plant response rating (scale of 0 to 100 where 0 is no effect and 100 is complete control), Galium: 40
  Galium plant response rating: 40
galium; [12]
  Plant response rating, Galium: 70
galium; [13]
  Plant response rating, Galium: 45
rice
  Plant response rating, Rice: 10
corn
  Plant response rating (scale of 0 to 100 where 0 is no effect and 100 is complete control), Corn: 5
  Corn plant response rating: 5
corn; [12]
  Plant response rating, Corn: 65
corn; [13]
  Plant response rating, Corn: 5
Velvetleaf [2]
  Velvetleaf plant response rating (0 to 100 scale): 70
  Velvetleaf plant response rating: 100
crabgrass, large [3]
  Crabgrass, Large plant response rating (0 to 100 scale): 100
  Crabgrass, Large plant response rating: 100
crabgrass, large [4]
  Plant response rating (scale of 0 to 100 where 0 is no effect and 100 is complete control), Crabgrass, Large: 5
  Crabgrass, Large plant response rating: 5
crabgrass, large [4]; [12]
  Plant response rating, Crabgrass, Large: 45
crabgrass, large [4]; [13]
  Plant response rating, Crabgrass, Large: 5
Velvetleaf [5]
  Plant response rating, Velvetleaf: 35
  Velvetleaf plant response rating: 25
waterhemp; [9]
  Waterhemp plant response rating: 100
waterhemp; [10]
  Waterhemp plant response rating: 100
waterhemp; 13 to 15 days
  Plant response rating, Waterhemp: 100
waterhemp; [11]
  Waterhemp plant response rating: 100
nutsedge, yellow; [9]
  Nutsedge, Yellow plant response rating: 5
nutsedge, yellow; [10]
  Nutsedge, Yellow plant response rating: 40
nutsedge, yellow; 13 to 15 days
  Plant response rating, Nutsedge, Yellow: 75
nutsedge, yellow; [11]
  Nutsedge, Yellow plant response rating: 75
foxtail, giant [6]; [14]
  Foxtail, Giant plant response rating: 90
foxtail, giant [6]; [15]
  Foxtail, Giant plant response rating: 80
lambsquarters; [9]
  Lambsquarters plant response rating: 98
lambsquarters; [10]
  Lambsquarters plant response rating: 98
lambsquarters; 13 to 15 days
  Plant response rating, Lambsquarters: 100
lambsquarters; [11]
  Lambsquarters plant response rating: 100

## CCOc1cc(C(=O)NC(C)C)nn1Cc1ccnc(C(F)(F)F)c1 [Compound 188]
morningglory; [7]
  Morningglory plant response rating: 70
morningglory; [8]
  Morningglory plant response rating: 100
foxtail, giant [1]
  Foxtail, Giant plant response rating (0 to 100 scale): 100
  Foxtail, Giant plant response rating: 100
barnyardgrass; [9]
  Barnyardgrass plant response rating: 100
barnyardgrass; [10]
  Barnyardgrass plant response rating: 100
barnyardgrass; 13 to 15 days
  Plant response rating, Barnyardgrass: 100
barnyardgrass; [11]
  Barnyardgrass plant response rating: 100
galium
  Plant response rating (scale of 0 to 100 where 0 is no effect and 100 is complete control), Galium: 80
  Galium plant response rating: 80
galium; [12]
  Plant response rating, Galium: 90
galium; [13]
  Plant response rating, Galium: 90
rice
  Plant response rating, Rice: 60
corn
  Plant response rating (scale of 0 to 100 where 0 is no effect and 100 is complete control), Corn: 5
  Corn plant response rating: 55
corn; [12]
  Plant response rating, Corn: 60
corn; [13]
  Plant response rating, Corn: 20
Velvetleaf [2]
  Velvetleaf plant response rating (0 to 100 scale): 100
  Velvetleaf plant response rating: 100
crabgrass, large [3]
  Crabgrass, Large plant response rating (0 to 100 scale): 100
  Crabgrass, Large plant response rating: 100
crabgrass, large [4]
  Plant response rating (scale of 0 to 100 where 0 is no effect and 100 is complete control), Crabgrass, Large: 5
  Crabgrass, Large plant response rating: 55
crabgrass, large [4]; [12]
  Plant response rating, Crabgrass, Large: 95
crabgrass, large [4]; [13]
  Plant response rating, Crabgrass, Large: 70
Velvetleaf [5]
  Plant response rating, Velvetleaf: 80
  Velvetleaf plant response rating: 60
waterhemp; [9]
  Waterhemp plant response rating: 100
waterhemp; [10]
  Waterhemp plant response rating: 100
waterhemp; 13 to 15 days
  Plant response rating, Waterhemp: 100
waterhemp; [11]
  Waterhemp plant response rating: 100
nutsedge, yellow; [9]
  Nutsedge, Yellow plant response rating: 30
nutsedge, yellow; [10]
  Nutsedge, Yellow plant response rating: 65
nutsedge, yellow; 13 to 15 days
  Plant response rating, Nutsedge, Yellow: 95
nutsedge, yellow; [11]
  Nutsedge, Yellow plant response rating: 98
foxtail, giant [6]; [14]
  Foxtail, Giant plant response rating: 90
foxtail, giant [6]; [15]
  Foxtail, Giant plant response rating: 90
lambsquarters; [9]
  Lambsquarters plant response rating: 100
lambsquarters; [10]
  Lambsquarters plant response rating: 100
lambsquarters; 13 to 15 days
  Plant response rating, Lambsquarters: 100
lambsquarters; [11]
  Lambsquarters plant response rating: 100

## CCOc1cc(C(=O)NC2CC2)nn1Cc1ccnc(C(F)(F)F)c1 [Compound 189]
morningglory; [7]
  Morningglory plant response rating: 90
morningglory; [8]
  Morningglory plant response rating: 100
foxtail, giant [1]
  Foxtail, Giant plant response rating (0 to 100 scale): 100
  Foxtail, Giant plant response rating: 100
barnyardgrass; [9]
  Barnyardgrass plant response rating: 95
barnyardgrass; [10]
  Barnyardgrass plant response rating: 100
barnyardgrass; 13 to 15 days
  Plant response rating, Barnyardgrass: 100
barnyardgrass; [11]
  Barnyardgrass plant response rating: 100
galium
  Plant response rating (scale of 0 to 100 where 0 is no effect and 100 is complete control), Galium: 80
  Galium plant response rating: 80
galium; [12]
  Plant response rating, Galium: 90
galium; [13]
  Plant response rating, Galium: 90
rice
  Plant response rating, Rice: 45
corn
  Plant response rating (scale of 0 to 100 where 0 is no effect and 100 is complete control), Corn: 5
  Corn plant response rating: 10
corn; [12]
  Plant response rating, Corn: 60
corn; [13]
  Plant response rating, Corn: 10
Velvetleaf [2]
  Velvetleaf plant response rating (0 to 100 scale): 100
  Velvetleaf plant response rating: 100
crabgrass, large [3]
  Crabgrass, Large plant response rating (0 to 100 scale): 100
  Crabgrass, Large plant response rating: 100
crabgrass, large [4]
  Plant response rating (scale of 0 to 100 where 0 is no effect and 100 is complete control), Crabgrass, Large: 5
  Crabgrass, Large plant response rating: 5
crabgrass, large [4]; [12]
  Plant response rating, Crabgrass, Large: 90
crabgrass, large [4]; [13]
  Plant response rating, Crabgrass, Large: 65
Velvetleaf [5]
  Plant response rating, Velvetleaf: 75
waterhemp; [9]
  Waterhemp plant response rating: 100
waterhemp; [10]
  Waterhemp plant response rating: 100
waterhemp; 13 to 15 days
  Plant response rating, Waterhemp: 100
waterhemp; [11]
  Waterhemp plant response rating: 100
nutsedge, yellow; [9]
  Nutsedge, Yellow plant response rating: 25
nutsedge, yellow; [10]
  Nutsedge, Yellow plant response rating: 80
nutsedge, yellow; 13 to 15 days
  Plant response rating, Nutsedge, Yellow: 85
nutsedge, yellow; [11]
  Nutsedge, Yellow plant response rating: 95
foxtail, giant [6]; [14]
  Foxtail, Giant plant response rating: 90
foxtail, giant [6]; [15]
  Foxtail, Giant plant response rating: 90
lambsquarters; [9]
  Lambsquarters plant response rating: 98
lambsquarters; [10]
  Lambsquarters plant response rating: 100
lambsquarters; 13 to 15 days
  Plant response rating, Lambsquarters: 100
lambsquarters; [11]
  Lambsquarters plant response rating: 100
